Measured values as given in patent US8791264B2 (Purdue Pharma L.P., priority 2006, dated 2014).

What follows are compounds tested against T1, N-type calcium channel (NTCC) (Homo sapiens, UniProt Q00975) (assay: FLIPR calcium mobilization assay for N-type calcium channel). Conditions: calcium mobilization in vitro assay; differentiated IMR32 cells.
T1 construct: host or cells: IMR32 cells differentiated with dibutyryl cAMP and bromodeoxyuridine
T1 sequence (Q00975 whole entry): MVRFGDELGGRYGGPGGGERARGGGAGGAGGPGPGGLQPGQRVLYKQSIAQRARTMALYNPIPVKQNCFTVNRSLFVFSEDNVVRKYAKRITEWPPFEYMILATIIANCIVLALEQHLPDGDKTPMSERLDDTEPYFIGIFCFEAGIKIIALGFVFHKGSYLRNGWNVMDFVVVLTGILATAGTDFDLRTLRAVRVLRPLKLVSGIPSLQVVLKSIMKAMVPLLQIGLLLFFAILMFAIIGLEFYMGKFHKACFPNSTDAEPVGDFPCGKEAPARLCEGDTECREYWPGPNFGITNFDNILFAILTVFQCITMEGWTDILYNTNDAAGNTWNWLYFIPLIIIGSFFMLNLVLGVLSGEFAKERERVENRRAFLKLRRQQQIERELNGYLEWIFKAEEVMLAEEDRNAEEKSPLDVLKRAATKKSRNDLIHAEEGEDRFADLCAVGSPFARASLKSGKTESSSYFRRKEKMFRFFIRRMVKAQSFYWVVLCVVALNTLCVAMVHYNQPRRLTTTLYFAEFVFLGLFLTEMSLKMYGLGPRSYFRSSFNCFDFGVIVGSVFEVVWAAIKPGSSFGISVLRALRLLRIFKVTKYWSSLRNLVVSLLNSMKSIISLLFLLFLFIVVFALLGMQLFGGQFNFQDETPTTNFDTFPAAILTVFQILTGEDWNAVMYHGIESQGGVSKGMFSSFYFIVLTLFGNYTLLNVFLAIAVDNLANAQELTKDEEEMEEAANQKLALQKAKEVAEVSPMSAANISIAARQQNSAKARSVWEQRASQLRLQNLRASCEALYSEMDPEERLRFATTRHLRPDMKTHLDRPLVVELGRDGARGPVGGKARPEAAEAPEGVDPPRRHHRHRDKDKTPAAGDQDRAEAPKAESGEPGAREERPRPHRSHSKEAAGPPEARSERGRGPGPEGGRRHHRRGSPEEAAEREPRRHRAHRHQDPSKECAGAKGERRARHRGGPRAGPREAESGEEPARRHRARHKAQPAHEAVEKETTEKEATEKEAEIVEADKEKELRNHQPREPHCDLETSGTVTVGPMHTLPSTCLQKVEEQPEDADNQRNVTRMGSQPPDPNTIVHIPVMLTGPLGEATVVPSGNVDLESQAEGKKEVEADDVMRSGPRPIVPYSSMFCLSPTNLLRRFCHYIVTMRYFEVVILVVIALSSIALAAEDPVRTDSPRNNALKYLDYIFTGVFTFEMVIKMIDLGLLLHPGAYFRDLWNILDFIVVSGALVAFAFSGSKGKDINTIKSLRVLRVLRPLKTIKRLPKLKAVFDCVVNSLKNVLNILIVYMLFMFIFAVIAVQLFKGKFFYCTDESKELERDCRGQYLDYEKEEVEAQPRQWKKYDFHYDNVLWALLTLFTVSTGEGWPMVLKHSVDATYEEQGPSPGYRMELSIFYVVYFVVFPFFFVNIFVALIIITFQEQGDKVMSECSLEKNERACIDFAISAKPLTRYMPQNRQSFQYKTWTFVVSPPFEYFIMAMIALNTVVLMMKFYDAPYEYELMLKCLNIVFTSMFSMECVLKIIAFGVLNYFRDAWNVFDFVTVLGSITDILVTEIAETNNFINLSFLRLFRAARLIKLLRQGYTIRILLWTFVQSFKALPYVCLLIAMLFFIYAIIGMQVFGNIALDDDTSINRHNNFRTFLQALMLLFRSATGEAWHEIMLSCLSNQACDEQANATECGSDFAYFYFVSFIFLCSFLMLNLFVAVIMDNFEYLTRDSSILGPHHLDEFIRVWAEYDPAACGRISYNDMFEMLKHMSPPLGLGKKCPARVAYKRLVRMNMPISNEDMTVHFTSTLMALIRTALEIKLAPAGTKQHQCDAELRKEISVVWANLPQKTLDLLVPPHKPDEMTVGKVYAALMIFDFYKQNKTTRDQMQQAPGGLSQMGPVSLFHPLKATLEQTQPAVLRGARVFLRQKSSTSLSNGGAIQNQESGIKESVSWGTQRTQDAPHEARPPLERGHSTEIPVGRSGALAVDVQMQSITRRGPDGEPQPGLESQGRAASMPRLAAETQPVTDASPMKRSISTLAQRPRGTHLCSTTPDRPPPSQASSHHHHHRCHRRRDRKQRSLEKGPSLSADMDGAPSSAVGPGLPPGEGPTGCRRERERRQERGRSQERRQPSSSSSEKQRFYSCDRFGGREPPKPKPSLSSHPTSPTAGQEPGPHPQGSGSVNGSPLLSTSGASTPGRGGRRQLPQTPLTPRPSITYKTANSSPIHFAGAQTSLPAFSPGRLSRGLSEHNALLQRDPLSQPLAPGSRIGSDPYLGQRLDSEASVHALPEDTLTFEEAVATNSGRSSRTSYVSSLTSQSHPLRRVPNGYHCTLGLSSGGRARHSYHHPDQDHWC
T1 sequence (P54289 25-956 partner limits assumed): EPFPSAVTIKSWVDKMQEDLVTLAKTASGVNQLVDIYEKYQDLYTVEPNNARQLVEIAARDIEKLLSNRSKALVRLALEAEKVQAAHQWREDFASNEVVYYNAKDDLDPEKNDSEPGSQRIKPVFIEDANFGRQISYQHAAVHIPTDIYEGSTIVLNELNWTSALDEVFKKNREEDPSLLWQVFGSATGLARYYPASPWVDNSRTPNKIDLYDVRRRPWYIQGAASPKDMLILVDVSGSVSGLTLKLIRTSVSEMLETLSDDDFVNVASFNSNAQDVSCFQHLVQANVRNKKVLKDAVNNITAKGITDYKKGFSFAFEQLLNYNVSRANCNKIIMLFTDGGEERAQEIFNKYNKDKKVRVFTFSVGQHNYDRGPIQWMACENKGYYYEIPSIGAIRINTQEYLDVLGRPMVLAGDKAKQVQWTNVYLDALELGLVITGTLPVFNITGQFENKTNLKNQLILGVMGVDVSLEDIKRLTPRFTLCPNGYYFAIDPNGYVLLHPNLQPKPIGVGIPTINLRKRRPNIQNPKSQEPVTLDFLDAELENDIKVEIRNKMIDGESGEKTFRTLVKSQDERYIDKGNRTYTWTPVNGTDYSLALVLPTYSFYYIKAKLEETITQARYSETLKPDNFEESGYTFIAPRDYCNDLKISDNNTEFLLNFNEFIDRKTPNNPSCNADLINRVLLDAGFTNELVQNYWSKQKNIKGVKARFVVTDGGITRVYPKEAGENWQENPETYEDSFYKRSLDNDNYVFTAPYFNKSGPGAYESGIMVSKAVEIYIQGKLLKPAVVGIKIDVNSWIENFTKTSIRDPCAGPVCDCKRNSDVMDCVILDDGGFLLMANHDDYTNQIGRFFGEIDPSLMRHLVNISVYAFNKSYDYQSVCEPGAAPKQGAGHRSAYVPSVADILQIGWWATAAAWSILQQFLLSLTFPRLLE
T1 sequence (P54289 957-1103 partner limits assumed): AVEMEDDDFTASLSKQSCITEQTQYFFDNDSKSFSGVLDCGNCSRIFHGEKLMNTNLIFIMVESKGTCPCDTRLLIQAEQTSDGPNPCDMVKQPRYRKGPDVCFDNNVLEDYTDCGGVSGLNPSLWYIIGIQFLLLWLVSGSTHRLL
T1 sequence (P54284 whole entry partner): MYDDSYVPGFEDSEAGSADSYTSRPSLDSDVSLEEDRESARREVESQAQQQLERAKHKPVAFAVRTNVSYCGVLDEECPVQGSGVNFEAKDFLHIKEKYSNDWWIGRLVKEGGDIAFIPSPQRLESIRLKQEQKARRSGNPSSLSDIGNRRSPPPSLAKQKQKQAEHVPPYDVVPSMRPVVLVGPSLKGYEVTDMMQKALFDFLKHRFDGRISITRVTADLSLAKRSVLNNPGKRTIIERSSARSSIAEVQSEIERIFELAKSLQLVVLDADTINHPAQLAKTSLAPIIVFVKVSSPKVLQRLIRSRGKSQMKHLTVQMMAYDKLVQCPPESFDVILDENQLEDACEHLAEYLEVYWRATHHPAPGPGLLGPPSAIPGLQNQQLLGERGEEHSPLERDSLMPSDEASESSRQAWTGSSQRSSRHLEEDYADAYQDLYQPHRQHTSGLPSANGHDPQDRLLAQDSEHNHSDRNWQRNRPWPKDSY
Assay type: cell-based
Experimental: Unless noted otherwise, cell culture reagents were purchased from Mediatech of Herndon, Md. IMR32 cells (American Type Culture Collection, ATCC, Manassas, Va.) were routinely cultured in growth medium consisting of minimum essential medium containing 10% fetal bovine serum (FBS, Hyclone, Logan, Utah), 100 U/mL penicillin, 100 μg/mL streptomycin, 2 mM L-glutamine, 1 mM sodium pyruvate, and 1× MEM non-essential amino acids. 80-90% confluent flasks of cells were differentiated using the following differentiation medium: Growth medium plus 1 mM dibutyryl cyclic AMP (Sigma, St. Louis, Mo.), and 2.5 μM bromodeoxyuridine (Sigma). Cells were differentiated for 8 days by replacing differentiation medium every 2-3 days.
FLIPR Calcium Mobilization Assay for N-Type Calcium Channel.
One day prior to performing this assay, differentiated IMR32 cells were treated with 1× CellStripper, and seeded on poly-D-lysine-coated 96-well clear-bottom black plates (Becton Dickinson, Franklin Lakes, N.J.) at 200,000 cells/well. On the day of the assay, the cell plates were washed with IMR32 buffer (127 mM NaCl, 1 mM KCl, 2 mM MgCl2, 700 μM NaH2PO4, 5 mM CaCl2, 5 mM NaHCO3, 8 mM HEPES, 10 mM glucose, pH 7.4), then pre-stimulated with KCl and loaded as follows: 0.05 mL of IMR32 buffer, 0.05 mL of each compound tested diluted in IMR32 buffer containing 20 μM nitrendipine (Sigma), and 0.1 mL KCl dissolved in IMR32 buffer, plus Fluo-4 were added (3 μM final concentration, Molecular Probes, Eugene, Oreg.). Final test compound concentrations ranged from about 846 pM to about 17 μM, final nitrendipine concentration was 5 μM, and final KCl concentration was 90 mM. After 1 hour, the cells were washed twice with 0.05 mL of each compound is tested in nitrendipine-containing IMR32 buffer (no KCl or Fluo-4), and then replaced with 0.1 mL of each compound tested in nitrendipine-containing IMR32 buffer. Plates were then transferred to a Fluorimetric Imaging Plate Reader (FLIPR^96, Molecular Devices, Inc., Sunnyvale, Calif.) for assay. The FLIPR measured basal Fluo-4 fluorescence for 315 seconds (i.e., 5 minutes and 15 seconds), then added 0.1 mL KCl agonist dissolved in IMR32 buffer and measured fluorescence for another 45 seconds. Final test compound concentrations on the cells after FLIPR read ranged from about 846 pM to about 17 μM, final nitrendipine concentration was 5 μM, and final KCl concentration was 90 mM. Data were collected over the entire time course and analyzed using Excel, Graph Pad Prism (version 3.02, Graph Pad, San Diego, Calif.), or an in-house non-linear regression analysis software.
`O=C(CN1CCC(N(C2CC2)S(=O)(=O)c2cccc(C(F)(F)F)c2)CC1)Nc1ccc(Cl)cc1OC(F)(F)F` [Compound 76, N-(4-Chloro-2-trifluoromethoxyphenyl)-2-{4-[cyclopropyl-(3-trifluoromethylbenzenesulfonyl)amino]-piperidin-1-yl}-acetamide] showed an IC50 of 1.83 µM. Work on `COCCNCC(=O)N1CCC(N(C(C)C)S(=O)(=O)c2cccc(C(F)(F)F)c2)CC1` [Compound 95, N-Isopropyl-N-{1-[2-(2-methoxy-ethylamino)acetyl]-piperidin-4-yl}-3-trifluoromethylbenzenesulfonamide] yielded an IC50 of 2.24 µM. In the case of `NCCN1CCC(N(C2CC2)S(=O)(=O)c2cccc(C(F)(F)F)c2)CC1` [Compound 114, N-[1-(2-Aminoethyl)-piperidin-4-yl]-N-cyclopropyl-3-trifluoromethylbenzenesulfonamide], the IC50 is reported as 1.49 µM. In the case of `CN(C1CCN(CC(=O)Nc2cc(C(F)(F)F)cc(C(F)(F)F)c2)CC1)S(=O)(=O)c1ccccc1` [Compound 68, 2-[4-(Benzenesulfonyl-methyl-amino)-piperidin-1-yl]-N-(3,5-bis-trifluoromethylphenyl)-acetamide], the IC50 is reported as 1.59 µM. `O=C(CC(=O)N1CCC(NS(=O)(=O)c2cccc(C(F)(F)F)c2)CC1)Nc1ccc(F)cc1F` [Compound 115, N-(2,4-Difluorophenyl)-3-oxo-3-[4-(3-trifluoromethylbenzenesulfonylamino)-piperidin-1-yl]-propionamide] showed an IC50 of 3.18 µM. `CC(C)CNC(=O)CN1CCC(N(C2CC2)S(=O)(=O)c2ccccc2)CC1` [Compound 37, 2-[4-(Benzenesulfonyl-cyclopropylamino)-piperidin-1-yl]-N-isobutylacetamide] was tested, and the IC50 was > 20 µM. `COc1ccc(Cl)cc1NC(=O)CN1CCC(N(C2CC2)S(=O)(=O)c2cccc(C(F)(F)F)c2)CC1` [Compound 82, N-(5-Chloro-2-methoxyphenyl)-2-{4-[cyclopropyl-(3-trifluoromethyl-benzenesulfonyl)amino]-piperidin-1-yl}-acetamide] was tested, and the IC50 was 3.99 µM. For `CN(C1CCN(C(=O)CC(=O)Nc2ccc(F)cc2F)CC1)S(=O)(=O)c1cccc(C(F)(F)F)c1` [Compound 28, N-(2,4-Difluorophenyl)-3-{4-[methyl-(3-trifluoromethylbenzene-sulfonyl)amino]-piperidin-1-yl}-3-oxo-propionamide], the IC50 was 4.9 µM. For `COc1ccc(CN[C@H](C(=O)N2CCC(N(C(C)C)S(=O)(=O)c3cccc(C(F)(F)F)c3)CC2)C(C)C)cc1` [Compound 88a, (S)—N-Isopropyl-N-{1-[2-(4-methoxybenzylamino)-3-methylbutyryl]-piperidin-4-yl}-3-trifluoromethylbenzenesulfonamide], the IC50 was 1.73 µM. Compound `O=C(CN1CCC(NS(=O)(=O)c2cccc(C(F)(F)F)c2)CC1)Nc1ccc(F)cc1` [Compound 116, N-(4-Fluorophenyl)-2-[4-(3-trifluoromethylbenzenesulfonylamino)-piperidin-1-yl]-acetamide] has an IC50 of 1.24 µM. Compound `CC(C)CNC(=O)CN1CCC(N(C2CC2)S(=O)(=O)c2cccc(F)c2)CC1` [Compound 36, 2-{4-[Cyclopropyl-(3-fluorobenzenesulfonyl)amino]-piperidin-1-yl}-N-isobutylacetamide] has an IC50 of 8 µM. In the case of `O=C(CN1CCC(N(C2CC2)S(=O)(=O)c2ccccc2)CC1)Nc1ccc(F)cc1` [Compound 48, 2-[4-(Benzenesulfonylcyclopropylamino)-piperidin-1-yl]-N-(4-fluorophenyl)acetamide], the IC50 is reported as 2.26 µM. With `O=C(CN1CCC(N(C2CC2)S(=O)(=O)c2cccc(C(F)(F)F)c2)CC1)Nc1ccc(C(F)(F)F)cc1C(F)(F)F` [Compound 72, N-(2,4-Bis-trifluoromethylphenyl)-2-{4-[cyclopropyl-(3-trifluoromethylbenzenesulfonyl)amino]-piperidin-1-yl}-acetamide] the IC50 was > 20 µM. Work on `C=CCC(N)C(=O)N1CCC(N(C(C)C)S(=O)(=O)c2cccc(C(F)(F)F)c2)CC1` (stereo not drawn) [N-[1-(2-amino-pent-4-enoyl)-piperidin-4-yl]-N-isopropyl-3-trifluoromethyl-benzenesulfonamide] yielded an IC50 of 2.94 µM. Compound `Cc1cccc(S(=O)(=O)N(C2CC2)C2CCN(CC(=O)Nc3ccc(F)cc3)CC2)c1` [Compound 45, 2-{4-[Cyclopropyl-(toluene-3-sulfonyl)amino]-piperidin-1-yl}-N-(4-fluorophenyl)acetamide] has an IC50 of 1.39 µM. For `CC(C)N(C1CCN(CC(N)=O)CC1)S(=O)(=O)c1cccc(C(F)(F)F)c1` [Compound 33, 2-{4-[Isopropyl-(3-trifluoromethylbenzenesulfonyl)amino]-piperidin-1-yl}-acetamide], the IC50 was 10 to 20 µM. Compound `Cc1cccc(S(=O)(=O)N(C2CC2)C2CCN(CC(=O)NCC(C)C)CC2)c1` [Compound 35, 2-{4-[Cyclopropyl-(toluene-3-sulfonyl)amino]-piperidin-1-yl}-N-isobutylacetamide] has an IC50 of 5.93 µM. For `COc1ccc(C(F)(F)F)cc1NC(=O)CN1CCC(N(C2CC2)S(=O)(=O)c2cccc(C(F)(F)F)c2)CC1` [Compound 83, 2-{4-[Cyclopropyl-(3-trifluoromethylbenzenesulfonyl)amino]-piperidin-1-yl}-N-(2-methoxy-5-trifluoromethylphenyl)-acetamide], the IC50 was 10 to 20 µM. Work on `COc1ccc(CNCC(=O)N2CCC(N(C3CC3)S(=O)(=O)c3ccccc3)CC2)cc1` [Compound 97, N-Cyclopropyl-N-{1-[2-(4-methoxy-benzylamino)acetyl]-piperidin-4-yl}-benzenesulfonamide] yielded an IC50 of 2.36 µM. Work on `CC(C)N(C1CCN(C(=O)C(C)(C)N)CC1)S(=O)(=O)c1cccc(C(F)(F)F)c1` [N-[1-(2-amino-2-methyl-propionyl)-piperidin-4-yl]-N-isopropyl-3-trifluoromethylbenzenesulfonamide] yielded an IC50 of 9.39 µM. `CC(C)N(C1CCN(C(=O)C2CNC2)CC1)S(=O)(=O)c1cccc(C(F)(F)F)c1` [N-[1-(azetidine-3-carbonyl)-piperidin-4-yl]-N-isopropyl-3-trifluoromethyl-benzenesulfonamide] showed an IC50 of 2.91 µM. Work on `CC(C)CNC(=O)CCN1CCC(N(C(C)C)S(=O)(=O)c2cccc(C(F)(F)F)c2)CC1` [Compound 107c, N-Isobutyl-3-{4-[isopropyl-(3-trifluoromethylbenzenesulfonyl)amino]-piperidin-1-yl}-propionamide] yielded an IC50 of 2 µM. `CC(C)N(C1CCN(C(=O)C(N)Cc2csc3ccccc23)CC1)S(=O)(=O)c1cccc(C(F)(F)F)c1` (stereo not drawn) [N-[1-(2-amino-3-benzo[b]thiophen-3-yl-propionyl)-piperidin-4-yl]-N-isopropyl-3-trifluoromethyl-benzenesulfonamide] gave an IC50 of 0.47 µM. Work on `Cc1cccc(C)c1NC(=O)CN1CCC(N(C(C)C)S(=O)(=O)c2cccc(C(F)(F)F)c2)CC1` [Compound 42a, N-(2,6-Dimethylphenyl)-2-{4-[isopropyl-(3-trifluoromethylbenzenesulfonyl)amino]-piperidin-1-yl}-acetamide] yielded an IC50 of 1.13 µM. In the case of `O=C(CN1CCC(N(C2CC2)S(=O)(=O)c2ccc(Cl)cc2)CC1)Nc1cc(C(F)(F)F)cc(C(F)(F)F)c1` [Compound 67, N-(3,5-Bis-trifluoromethylphenyl)-2-{4-[(4-chlorobenzenesulfonyl)-cyclopropylamino]-piperidin-1-yl}-acetamide], the IC50 is reported as 4.17 µM. In the case of `CN(C1CCN(CC(=O)Nc2nc3ccc(F)cc3s2)CC1)S(=O)(=O)c1cccc(C(F)(F)F)c1` [Compound 65], the IC50 is reported as 2.16 µM. Compound `O=C(CN1CCC(N(C2CC2)S(=O)(=O)c2ccc(Cl)cc2)CC1)Nc1ccc(F)cc1` [Compound 49, 2-{4-[(4-Chlorobenzenesulfonyl)cyclopropylamino]-piperidin-1-yl}-N-(4-fluorophenyl)acetamide] has an IC50 of 1.31 µM. With `CC(C)N(C1CCN(C(=O)CNc2ccc(F)cc2)CC1)S(=O)(=O)c1cccc(C(F)(F)F)c1` [Compound 17, N-{1-[2-(4-Fluorophenylamino)acetyl]-piperidin-4-yl}-N-isopropyl-3-trifluoromethylbenzenesulfonamide] the IC50 was 1.68 µM. `C#CCC(N)C(=O)N1CCC(N(C(C)C)S(=O)(=O)c2cccc(C(F)(F)F)c2)CC1` (stereo not drawn) [N-[1-(2-amino-pent-4-ynoyl)-piperidin-4-yl]-N-isopropyl-3-trifluoromethyl-benzenesulfonamide] was tested, and the IC50 was 5.96 µM. With `COc1ccc(NCCC(=O)N2CCC(N(C(C)C)S(=O)(=O)c3cccc(C(F)(F)F)c3)CC2)cc1` [N-isopropyl-N-{1-[3-(4-methoxy-phenylamino)-propionyl]-piperidin-4-yl}-3-trifluoromethyl-benzenesulfonamide] the IC50 was 1 µM.
